Assay results as given in patent publication US20140142055A1, “METHODS OF TREATING RECURRENT MEIBOMIAN GLANDS DISORDER AND THEREBY DECREASING THE FREQUENCY OF RECURRENCE” (INSITE VISION CORPORATION, priority 2011, published 2014).

Test: Release of fluorometholone from the gelled aqueous polymer suspension in the rabbit eye, measured in the aqueous humor
Type: in vivo
Conditions: topical sustained-release aqueous suspension of lightly cross-linked carboxyl-containing polymer
Protocol: The viscous gels that result from fluid eye drops delivered by means of the aqueous suspensions have residence times in the eye ranging from about 2 to about 12 hours, e.g., from about 3 to about 6 hours. The active ingredients contained in these ophthalmically acceptable vehicles can be released from the gels at rates that depend on such factors as the active ingredient itself and its physical form, the extent of drug loading and the pH of the system, as well as on any drug delivery adjuvants, such as ion exchange resins compatible with the ocular surface, which can also be present.

release rates in the rabbit eye, as measured by fluorometholone contained in the aqueous humor: in excess of four hours
Structure (SMILES): CC(=O)[C@@]1(O)CC[C@H]2[C@@H]3C[C@H](C)C4=CC(=O)C=C[C@]4(C)[C@@]3(F)[C@@H](O)C[C@@]21C [fluorometholone]
